# Data as given in PMC5461506, “Strength of Neisseria meningitidis binding to endothelial cells requires highly-ordered CD147/β2-adrenoceptor clusters assembled by alpha-actinin-4” (Nature Communications, 2017).
# No end group written: not given here. *: point of attachment. Biotin = O=C1N[C@H]2[C@H](CS[C@H]2CCCCC(=O)*)N1
# Assays:
# [1] = biological target: juxta-membrane cytosolic portion of CD44; assay: Surface plasmon resonance, immobilized CD44 juxta-membrane peptide; type: binding; settings: SPR, non-reducing buffer, BIAcore T200, read-out: dissociation constant (Kd)
# Protocol: (§1) For SPR experiments, the fusion proteins GST-Actn4, GST alone or the GST-FERM domain of ezrin used as a control were diluted either in a non-reducing (PBS, 0.02% Tween-20) or a reducing (10 mM HEPES, 150 mM NaCl, 1 mM EDTA, 1 mM dithiothreitol, 0.005% Tween-20) running buffer. To control the impact of these buffers on the dimerization status of Actn4, Actn4-GST or GST alone as a control (final concentration 100 nM) were incubated for 30 min with 250 μM freshly prepared solution of bissulfosuccinimidyl suberate crosslinker, then separated on SDS–PAGE gels and transferred to nitrocellulose to analyse their electrophoretic migration by immunoblot. Interaction studies between α-Actn4 and CD147 were performed on a BIAcore T200 Instrument (BIAcore Life Sciences, GE Healthcare Europe). Streptavidin-coated sensor chips (Series S sensor chip SA; GE Healthcare) were used to capture a biotinylated peptide encoding the cytosolic sequence of CD147 (Biotin-[…]) or the juxta-membrane region of CD44 (Biotin-NSRRRCGQKKKLVINSG), purchased from Proteogenix, at a flow rate of 5 μl min^−1 in the non-reducing or the reducing running buffer. The density was controlled at an increased response level of 630 and 286 response units (RUs), for CD147 and CD44, respectively depending on molecular weight. […] Output sensorgrams were analysed using the BIAevaluation 4.1.1 Software.
# cytosolic tail of CD147 = assay: Surface plasmon resonance, immobilized CD147 cytosolic peptide; type: binding; settings: SPR, non-reducing buffer
# Protocol: as §1
# CD147–β2AR complex = assay: BRET between CD147-Rluc and β2AR-YFP; type: cell-based, human; settings: HEK293 cells
# Protocol: HEK293 cells (2 × 10^5 per well of a 6-well plates) were transfected with 2 ng plasmid DNA coding for the BRET donor (CD147-Luc, CD147ΔD2-Luc) and increasing amounts of BRET acceptor plasmids (β2-YFP, CCR5-YFP; 0–400 ng per well). Twenty-four hours after transfection, cells were resuspended in Hank's balanced salt solution and distributed in 96-well plates (Perkin-Elmer plates; 10^5 cells per well). After addition of the luciferase substrate, coelenterazine h (5 μM final concentration), luminescence at 485 nm and fluorescence at 530 nm were measured simultaneously in a Mithras LB940 Plate Reader. The BRET ratio was calculated as: ((emission at 530 nm/emission at 485 nm)−(background at 530 nm/background at 485 nm)), where background corresponds to signals in cells expressing the Rluc fusion protein alone under the same experimental conditions. For better readability, results were expressed in milli-BRET units (mBRET), 1 mBRET corresponding to the BRET ratio multiplied by 1000. BRET ratios were plotted as a function of ([YFP-YFP0])/(Rluc), where YFP is the fluorescence signal at 530 nm after excitation at 485 nm, and Rluc the signal at 485 nm after addition of coelenterazine h. YFP0 and Rluc0 correspond to the same values in cells expressing the Rluc fusion protein alone. […]
# [2] = biological target: T1, GST-coupled four-point-one, ezrin, radixin, moesin (FERM) domain of ezrin (human, UniProt P15311 2-296); assay: SPR; BIAcore T200, biotinylated peptides captured on streptavidin chip (630 RU CD147, 286 RU CD44), GST fusions as analytes, non-reducing buffer (PBS, 0.02% Tween-20), 25 μl/min, 60 s association, 60 s dissociation; settings: both partners purified
# T1 construct: also called GST-FERM domain of ezrin; ezrin FERM domain in fusion with GST
# [3] = biological target: T2, recombinant glutathione-S-transferase (GST)–Actn4 fusion protein (human, UniProt O43707 1-911); assay: as above; settings: both partners purified
# T2 construct: also called Actn4-GST; source: recombinant, purified
# [4] = biological target: T2, recombinant glutathione-S-transferase …; assay: SPR; BIAcore T200, biotinylated peptide captured on streptavidin chip, GST-Actn4 as analyte, reducing buffer (10 mM HEPES, 150 mM NaCl, 1 mM EDTA, 1 mM dithiothreitol, 0.005% Tween-20); apparent affinity; settings: both partners purified
# T2 sequence (O43707 whole entry, the tested form may be a part): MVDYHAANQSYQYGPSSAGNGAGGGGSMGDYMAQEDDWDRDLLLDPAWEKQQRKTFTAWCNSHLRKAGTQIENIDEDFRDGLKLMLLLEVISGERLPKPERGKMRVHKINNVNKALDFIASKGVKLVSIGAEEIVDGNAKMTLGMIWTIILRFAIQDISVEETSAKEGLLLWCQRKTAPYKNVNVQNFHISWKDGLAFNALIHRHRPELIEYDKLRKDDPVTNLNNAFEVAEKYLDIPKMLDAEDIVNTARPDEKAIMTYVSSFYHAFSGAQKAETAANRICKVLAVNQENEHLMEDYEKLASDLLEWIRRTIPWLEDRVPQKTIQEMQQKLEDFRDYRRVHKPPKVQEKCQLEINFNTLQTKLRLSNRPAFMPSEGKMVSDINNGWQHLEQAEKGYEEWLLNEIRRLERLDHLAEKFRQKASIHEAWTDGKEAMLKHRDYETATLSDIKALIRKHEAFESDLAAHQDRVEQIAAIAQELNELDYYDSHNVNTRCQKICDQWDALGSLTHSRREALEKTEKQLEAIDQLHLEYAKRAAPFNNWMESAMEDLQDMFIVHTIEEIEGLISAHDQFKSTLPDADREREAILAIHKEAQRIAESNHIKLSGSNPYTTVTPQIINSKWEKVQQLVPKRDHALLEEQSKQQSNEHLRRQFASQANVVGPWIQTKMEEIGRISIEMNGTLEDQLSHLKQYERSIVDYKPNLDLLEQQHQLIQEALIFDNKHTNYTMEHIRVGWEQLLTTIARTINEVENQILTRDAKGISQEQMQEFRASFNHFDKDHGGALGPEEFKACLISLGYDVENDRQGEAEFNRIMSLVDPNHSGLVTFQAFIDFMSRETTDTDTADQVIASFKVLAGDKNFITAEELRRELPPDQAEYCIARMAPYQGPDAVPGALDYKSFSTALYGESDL
# T1 sequence (P15311 2-296): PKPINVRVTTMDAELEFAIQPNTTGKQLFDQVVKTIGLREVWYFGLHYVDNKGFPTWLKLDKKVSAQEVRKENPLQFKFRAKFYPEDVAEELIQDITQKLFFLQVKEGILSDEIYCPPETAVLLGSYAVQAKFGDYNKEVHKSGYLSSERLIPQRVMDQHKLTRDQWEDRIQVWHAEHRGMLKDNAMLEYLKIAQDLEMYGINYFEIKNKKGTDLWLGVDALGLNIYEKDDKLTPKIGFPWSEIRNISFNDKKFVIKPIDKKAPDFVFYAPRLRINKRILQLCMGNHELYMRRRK
molecule,measurement,setting,value
"GST-coupled four-point-one, ezrin, radixin, moesin (FERM) domain of ezrin: GST-FERM domain of ezrin used as a control",Kd,[1],4.3 ± 0.1 nM
same,interaction with immobilized CD147 peptide,cytosolic tail of CD147,poorly interacted with the CD147 peptide
CC(C)NCC(O)COc1cccc2ccccc12 (centres unmarked) [propranolol],effect on isoproterenol-induced BRET reduction,"CD147–β2AR complex; 10 μM isoproterenol in combination with 10 μM propranolol, 20 min",This effect was inhibited
CC(C)NCC(O)c1ccc(O)c(O)c1 (centres unmarked) [isoproterenol],BRET signal between CD147 and β2AR,"CD147–β2AR complex; 2 ng CD147-Rluc, 20 ng β2AR-YFP, isoproterenol 10 μM, read every 2 min for 20 min, mean±s.e.m., n=3, representative of four experiments",reduced
"Biotin-NSRRRCGQKKKLVINSG (also called cytosolic tail of CD44; juxta-membrane cytosolic portion of CD44; source: synthetic peptide, bought: ProteoGenix) [biotinylated peptide of the juxta-membrane region of CD44]",Kd,[2],4.3 ± 0.1 nM
same,Kd,[3],159 ± 43 nM
"Biotin-AYDKRRKPEDVLDDDDAGSAPLKSSGQHQNDKGKNVRQRNSS (also called CD147-CT; CD147 peptide; source: synthetic peptide, bought: ProteoGenix) [biotinylated peptide encoding the cytosolic sequence of CD147]",Kd,[4],44600 ± 32500 nM
same,Kd,[3],4 ± 0.01 nM
